Results reported in patent publication US11339447B2, “System and method for determining Kareniticin sensitivity on cancer” (CROWN BIOSCIENCE, INC. (TAICANG), priority 2017, dated 2022).

Legend:
Assay in all cases: karenitecin treatment of PDX model
Assay type in all cases: in vivo
Parameters in all cases: key to Response: responder: responded to karenitecin treatment (AUC<0.5 and TGI>0.8); non_responder: did not respond to karenitecin treatment (AUC>0.5 and TGI<0.6)
Settings in all cases: karenitecin treatment for two weeks
[1] = system: PDX CR2520
Description: (§1) A cohort of 48 PDX models in 8 cancers were used in this study. Those models were subject to karenitecin treatment for two weeks. Both tumor growth inhibition (TGI) and median AUC (area under curve) ratio, a newly developed metric to evaluate drug efficacy, were calculated (Table 1). Those models can be divided into two categories according to TGI and median AUC ratio.

[2] = system: PDX CR2528
Description: as §1

[3] = system: PDX CR2545
Description: as §1

[4] = system: PDX CR3079
Description: as §1

[5] = system: PDX CR3310
Description: as §1

[6] = system: PDX ES0042
Description: as §1

[7] = system: PDX GA3109
Description: as §1

[8] = system: PDX LU1144
Description: as §1

[9] = system: PDX LU1215
Description: as §1

[10] = system: PDX LU1235
Description: as §1

[11] = system: PDX OV0276
Description: as §1

[12] = system: PDX PA0527
Description: as §1

[13] = system: PDX PA1301
Description: as §1

[14] = system: PDX PA3065
Description: as §1

Structure (SMILES): CC[C@@]1(O)C(=O)OCc2c1cc1n(c2=O)Cc2c-1nc1ccccc1c2CC[Si](C)(C)C [karenitecin]
- Median AUC ratio [1]: 0.914
- Response [1]: non_responder
- TGI [1]: 0.288
- Median AUC ratio [2]: 1.014
- Response [2]: non_responder
- TGI [2]: 0.519
- Median AUC ratio [3]: 0.597
- Response [3]: non_responder
- TGI [3]: 0.379
- Median AUC ratio [4]: 0.706
- Response [4]: non_responder
- TGI [4]: 0.381
- Median AUC ratio [5]: −0.926
- Response [5]: responder
- TGI [5]: 1.727
- Median AUC ratio [6]: −0.100
- Response [6]: responder
- TGI [6]: 1.128
- Median AUC ratio [7]: 0.137
- Response [7]: responder
- TGI [7]: 1.046
- Median AUC ratio [8]: 1.056
- Response [8]: non_responder
- TGI [8]: 0.378
- Median AUC ratio [9]: 0.232
- Response [9]: responder
- TGI [9]: 1.006
- Median AUC ratio [10]: −0.018
- Response [10]: responder
- TGI [10]: 0.932
- Median AUC ratio [11]: 0.314
- Response [11]: responder
- TGI [11]: 1.103
- Median AUC ratio [12]: 0.316
- Response [12]: responder
- TGI [12]: 0.996
- Median AUC ratio [13]: 1.038
- Response [13]: non_responder
- TGI [13]: 0.285
- Median AUC ratio [14]: 0.309
- Response [14]: responder
- TGI [14]: 1.019
